In US20210238170A1, “5,5-Difluoro- and 5-Fluoro-5-Methyl-C-Glycoside Derivatives Useful As Dual SGLT1 / SGLT2 Modulators” (Janssen Pharmaceutica NV, priority 2018, published 2021):
Read-outs that look alike come from different tables or passages of the source.

What was measured:
[1] = target: T1, human SGLT2 (Homo sapiens, UniProt P31639); experiment: SGLT2 in vitro assay: Na-dependent 14C-AMG uptake in CHO-K1 cells stably expressing human SGLT2; assay type: cell-based; details: for inhibition at 0.3 µM: read-out: SGLT2 % Inh @ 0.3 μM
T1 construct: expressed in transfected cells
T1 sequence (P31639 1-672): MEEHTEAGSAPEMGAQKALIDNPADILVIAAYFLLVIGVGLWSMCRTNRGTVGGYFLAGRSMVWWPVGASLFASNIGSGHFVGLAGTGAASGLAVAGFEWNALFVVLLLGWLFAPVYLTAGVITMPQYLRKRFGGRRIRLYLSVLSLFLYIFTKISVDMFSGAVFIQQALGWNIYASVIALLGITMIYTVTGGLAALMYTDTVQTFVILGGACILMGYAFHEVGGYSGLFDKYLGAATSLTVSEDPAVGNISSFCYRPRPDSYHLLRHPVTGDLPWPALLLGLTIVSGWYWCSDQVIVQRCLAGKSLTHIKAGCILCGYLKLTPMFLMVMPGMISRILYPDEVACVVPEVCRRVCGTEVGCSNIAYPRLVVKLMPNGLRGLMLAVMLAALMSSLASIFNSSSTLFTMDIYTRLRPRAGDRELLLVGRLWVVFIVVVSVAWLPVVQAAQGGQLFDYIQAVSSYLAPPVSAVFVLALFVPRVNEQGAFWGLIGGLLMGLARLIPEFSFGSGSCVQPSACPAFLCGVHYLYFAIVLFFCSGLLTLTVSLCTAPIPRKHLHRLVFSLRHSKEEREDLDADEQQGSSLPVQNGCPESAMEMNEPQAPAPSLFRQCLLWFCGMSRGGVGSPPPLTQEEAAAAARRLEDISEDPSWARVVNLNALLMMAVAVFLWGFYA
Procedure: (§1) Biological Example 1: SGLT1 and SGLT2 In Vitro Assays
(§2) The ability of the compounds of formula (I) of the present invention to treat an SGLT-mediated condition was determined using the following procedures:
(§3) SGLT1 and SGLT2 were cloned in form of cDNA from human small intestine (Genbank M24847), and from human kidney (Genbank M95549), respectively. Subsequently, each full cDNA was subcloned into pcDNA with each construct's integrity verified through follow-on sequencing. To generate CHO-K1 cells that stably express human SGLT1 or human SGLT2, CHO-K1 cells were transfected using DMRIE-C reagent (Life Technologies, Gaithersburg, Md.). Transfected cells were then selected in the presence of 500 μg/ml of the Geneticin (G418 Cellgro Catalog No. 30234-CI)
(§4) Individual clones were then characterized using the following cell-based assay for sodium-dependent glucose transport:
(§5) Inhibition of SGLT1 and SGLT2 activity was assessed in CHO K1 cells stably expressing either human SGLT1 or SGLT2, using the SGLT specific glucose analog methyl-glucopyranoside (Sigma Catalog No. M-9376). Cells were plated (45,000 cells/well) in white wall 96-well plates (COSTAR, Cat #3903) for 24 hours in growth medium, then a final concentration of 10 mM Na-Butyrate (ALDRICH Cat #30341-0) was added. The cells were incubated for 24 hours. On the day of the assay, cells were rinsed and treated with test compounds (at concentrations of 0.001 μM to 10 μM) in assay buffer (50 mM HEPES, 20 mM Tris base, 5 mM KCl, 1 mM MgCl2, 1 mM CaCl2 and 137 mM NaCl, pH 7.4) for 10 minutes. Cells were then incubated with ^14C-a-methyl-d-glucopyranoside (AMG, Amersham Catalog No. CFB 76), using 0.07 μCi per well in 500 µM AMG final concentration. The cells were incubated for 2 hours at 37° C. with 5% CO2 and washed two times with ice-cold Phosphate Buffer Solution (CELLGRO Catalog No. 21030-CV). The cells were then solubilized by adding 60 μl of MICROSCINT™ 20 and the Na-dependent ^14C-AMG uptake was quantified by measuring radioactivity. Plates were counted in a TopCount (Packard, Meriden, Conn.)
(§6) Representative compounds of the present invention were tested according to the procedures as described in Biological Example 1 and 2 above, with results as listed in Table 5, below. Results are reported as the %-inhibition or IC50 value. Variability for the functional assay was typically within 20%.

[2] = target: T2, human SGLT1 (Homo sapiens, UniProt P13866); experiment: SGLT1 in vitro assay: Na-dependent 14C-AMG uptake in CHO-K1 cells stably expressing human SGLT1; assay type: cell-based; details: for inhibition at 0.3 µM: read-out: SGLT1 % Inh @ 0.3 μM
T2 construct: expressed in transfected cells
T2 sequence (P13866 1-664): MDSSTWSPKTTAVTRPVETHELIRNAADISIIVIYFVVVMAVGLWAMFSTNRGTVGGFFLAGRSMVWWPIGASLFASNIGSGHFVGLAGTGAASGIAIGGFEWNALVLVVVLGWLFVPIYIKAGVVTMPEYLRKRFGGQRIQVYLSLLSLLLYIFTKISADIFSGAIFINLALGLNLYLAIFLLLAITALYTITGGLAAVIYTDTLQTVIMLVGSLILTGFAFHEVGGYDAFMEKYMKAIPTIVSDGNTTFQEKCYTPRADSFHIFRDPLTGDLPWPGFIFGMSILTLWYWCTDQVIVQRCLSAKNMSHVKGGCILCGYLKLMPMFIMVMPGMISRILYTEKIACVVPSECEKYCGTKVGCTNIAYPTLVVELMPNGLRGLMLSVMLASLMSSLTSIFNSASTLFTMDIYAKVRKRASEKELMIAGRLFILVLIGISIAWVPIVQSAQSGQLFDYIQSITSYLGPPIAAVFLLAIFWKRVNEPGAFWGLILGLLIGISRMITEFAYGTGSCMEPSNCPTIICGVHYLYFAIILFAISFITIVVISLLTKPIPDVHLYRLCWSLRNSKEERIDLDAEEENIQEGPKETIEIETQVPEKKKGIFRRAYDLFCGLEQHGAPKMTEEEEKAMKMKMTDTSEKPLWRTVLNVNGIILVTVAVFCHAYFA
Procedure: as §1, §2, §3, §4, §5, §6

[3] = @ 0.3 μM, CHO-K1 cells stably expressing human SGLT2, 14C-AMG uptake
[4] = CHO-K1 cells stably expressing human SGLT2, 14C-AMG uptake, compounds of formula (I) where R0 is fluoro
[5] = @ 0.3 μM, CHO-K1 cells stably expressing human SGLT1, 14C-AMG uptake
[6] = CHO-K1 cells stably expressing human SGLT1, 14C-AMG uptake, compounds of formula (I) where R0 is fluoro

Row | inhibition at 0.3 µM [1, 3] [%] | IC50 [1, 4] [nM] | inhibition at 0.3 µM [2, 5] [%] | IC50 [2, 6] [nM] | SMILES | further results
1 | 82 | 1.4 | 81.7 | 49 | OC[C@H]1O[C@@H](c2cc(Cc3ccc4c(c3)OCCO4)c(Cl)cc2O)[C@H](O)[C@@H](O)C1(F)F [Compound 45, (2S,3R,4R,6R)-2-[4-chloro-5-(2,3-dihydro-1,4-benzodioxin-6-ylmethyl)-2-hydroxy-phenyl]-5,5-difluoro-6-(hydroxymethyl)tetrahydropyran-3,4-diol] | 
2 | 73 | 1.5 | 56.5 | 127 | CCOc1ccc(Cc2cc([C@@H]3O[C@H](CO)C(F)(F)[C@H](O)[C@H]3O)c(O)cc2Cl)cc1 [Compound 162] | 
3 | 83.9 | 4.5 | 40.7 | 422 | OC[C@H]1O[C@@H](c2cc(Cc3ccc4c(c3)SCCO4)c(Cl)c3c2OCC3)[C@H](O)[C@@H](O)C1(F)F [Compound 132] | 
4 | 87.7 | 4.7 | 48.1 | 636 | CCc1cc(OC)c([C@@H]2O[C@H](CO)C(F)(F)[C@H](O)[C@H]2O)cc1Cc1ccc(OC)cc1 [Compound 89, (2S,3R,4R,6R)-2-[4-ethyl-2-methoxy-5-[(4-methoxyphenyl)methyl]phenyl]-5,5-difluoro-6-(hydroxymethyl)tetrahydropyran-3,4-diol] | 
5 |  |  |  |  | Cc1cc(O)c([C@@H]2O[C@H](CO)[C@@](C)(F)[C@H](O)[C@H]2O)cc1Cc1ccc(OCF)cc1 (stereo in doubt) [Compound 23, (2S,3R,4R,5S,6R)-5-fluoro-2-(5-(4-(fluoromethoxy)benzyl)-2-hydroxy-4-methylphenyl)-6-(hydroxymethyl)-5-methyl-tetrahydro-2H-pyran-3,4-diol] | inhibition at 0.3 µM ([1]; 0.3 μM, CHO-K1 cells expressing human SGLT2): 88%; IC50 ([1]; CHO-K1 cells expressing human SGLT2, 14C-AMG uptake): 2.8 nM; inhibition at 0.3 µM ([2]; 0.3 μM, CHO-K1 cells expressing human SGLT1): 54%; IC50 ([2]; CHO-K1 cells expressing human SGLT1, 14C-AMG uptake): 319 nM
6 | 81.1 | 4.5 | 43.5 | 1030 | COc1cc(C)c(Cc2ccc(Cl)s2)cc1[C@@H]1O[C@H](CO)C(F)(F)[C@H](O)[C@H]1O [Compound 112] | 
7 |  |  |  |  | Cc1cc(O)c([C@@H]2O[C@H](CO)C(F)(F)[C@H](O)[C@H]2O)cc1Cc1cc2c(s1)CCN(C(=O)c1nccs1)C2 [Compound 80] | SGLT2 % Inh @ 0.3 μM [1, 3]: 82.1%; SGLT1 % Inh @ 0.3 μM [2, 5]: 31.1%
8 | 81.4 | 4.8 | 49.1 | 318 | Cc1cc(O)c([C@@H]2O[C@H](CO)C(F)(F)[C@H](O)[C@H]2O)cc1Cc1ccc(OC(F)F)cc1 [Compound 96, (2S,3R,4R,6R)-2-[5-[[4-(difluoromethoxy)phenyl]methyl]-2-hydroxy-4-methyl-phenyl]-5,5-difluoro-6-(hydroxymethyl)tetrahydropyran-3,4-diol] | 
9 | 87.8 | 16.4 | 73 | 66 | CCc1cc(O)c([C@@H]2OC3(CC3)C(F)(F)[C@H](O)[C@H]2O)cc1Cc1ccc2c(c1)OCCO2 [Compound 94] | 
10 | 88.1 | 6.7 | 48.7 | 591 | CCc1ccc(Cc2cc([C@@H]3O[C@H](CO)C(F)(F)[C@H](O)[C@H]3O)c(OC)cc2OC)cc1 [Compound 153] | 
11 |  |  |  |  | N#CCOc1cc(Cl)c(Cc2cc3ccccc3s2)cc1[C@@H]1O[C@H](CO)C(F)(F)[C@H](O)[C@H]1O [Compound 51] | SGLT2 % Inh @ 0.3 μM [1, 3]: 82.0%; SGLT1 % Inh @ 0.3 μM [2, 5]: 30.8%
12 |  |  |  |  | CCc1cc(O)c([C@@H]2O[C@H](CO)C(F)(F)[C@H](O)[C@H]2O)cc1Cc1ccc(OC(F)(F)F)cc1 [Compound 104] | SGLT2 % Inh @ 0.3 μM [1, 3]: 82.6%; SGLT1 % Inh @ 0.3 μM [2, 5]: 39.2%
13 |  |  |  |  | OC[C@H]1O[C@@H](c2cc(Cc3ccc(OCF)cc3)c(Cl)cc2O)[C@H](O)[C@@H](O)C1(F)F [Compound 125] | SGLT2 % Inh @ 0.3 μM [1, 3]: 90.2%; SGLT1 % Inh @ 0.3 μM [2, 5]: 32.9%
14 | 90.6 | 1.7 | 52 | 105 | COc1cc(Cl)c(Cc2ccc(C)cc2)cc1[C@@H]1O[C@H](CO)C(F)(F)[C@H](O)[C@H]1O [Compound 176] | 
15 | 76.3 |  | 39.2 |  | COc1cc(C)c(Cc2cc3ccccc3s2)cc1[C@@H]1O[C@H](CO)C(F)(F)[C@H](O)[C@H]1O [Compound 35, (2S,3R,4R,6R)-2-[5-(benzothiophen-2-ylmethyl)-2-methoxy-4-methyl-phenyl]-5,5-difluoro-6-(hydroxymethyl)tetrahydropyran-3,4-diol] | 
16 | 78.1 |  | 36.5 |  | COc1cc(Cl)c(Cc2ccc3c(c2)OCCO3)cc1[C@@H]1O[C@H](CO)C(F)(F)[C@H](O)[C@H]1O [Compound 48, (2S,3R,4R,6R)-2-[4-chloro-5-(2,3-dihydro-1,4-benzodioxin-6-ylmethyl)-2-methoxy-phenyl]-5,5-difluoro-6-(hydroxymethyl)tetrahydropyran-3,4-diol] | 
17 |  |  |  |  | COCCOc1cc(C)c(Cc2cc3ccccc3s2)cc1[C@@H]1O[C@H](CO)C(F)(F)[C@H](O)[C@H]1O [Compound 39] | SGLT2 % Inh @ 0.3 μM [1, 3]: 76.4%; SGLT1 % Inh @ 0.3 μM [2, 5]: 31.8%
18 | 88.6 | 2.7 | 64.4 | 96 | CCc1ccc(Cc2cc([C@@H]3O[C@H](CO)C(F)(F)[C@H](O)[C@H]3O)c(O)cc2C)cc1 [Compound 131, (2S,3R,4R,6R)-2-(5-(4-ethylbenzyl)-2-hydroxy-4-methylphenyl)-5,5-difluoro-6-(hydroxymethyl)tetrahydro-2H-pyran-3,4-diol] | 
19 | 82.4 | 1.5 | 83 | 53 | CCc1cc(O)c([C@@H]2O[C@H](CO)C(F)(F)[C@H](O)[C@H]2O)cc1Cc1ccc(OCF)cc1 [Compound 148] | 
